Reference: PubChem BioAssay (NCI)
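Growth conditions: 96-well plates. Treatment: test compound, 48 hours, 5 concentrations. Analysis: linear interpolation between bracketing concentrations; unreached endpoints set to highest concentration. Here, GI50 denotes the concentration required for 50% inhibition of growth. TGI denotes the concentration required for complete inhibition of growth.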

Assays:
Experiment in all cases: growth of human tumour cells (NCI), 48 h
[1] = tested on: ACHN renal
[2] = tested on: OVCAR-4 ovarian
[3] = tested on: LOX IMVI melanoma
[4] = tested on: SW-620 colon
[5] = tested on: RXF 393 renal
[6] = tested on: TK-10 renal
[7] = tested on: SK-MEL-5 melanoma
[8] = tested on: A549 NSCLC
[9] = tested on: RPMI-8226 leukemia
[10] = tested on: HCT-15 colon

| SMILES | TGI [1] [µM] | TGI [2] [µM] | TGI [3] [µM] | TGI [4] [µM] | TGI [5] [µM] | TGI [6] [µM] | TGI [7] [µM] | TGI [8] [µM] | TGI [9] [µM] | TGI [10] [µM] | GI50 [2] [µM] | GI50 [4] [µM] | GI50 [5] [µM] | GI50 [6] [µM] | GI50 [7] [µM] | GI50 [8] [µM] | GI50 [3] [µM] | GI50 [9] [µM] | GI50 [10] [µM] |
| --- | --- | --- | --- | --- | --- | --- | --- | --- | --- | --- | --- | --- | --- | --- | --- | --- | --- | --- | --- |
| CCOc1ccccc1NC(=O)C1=C(C)NC(C)=C(C(=O)Nc2ccccc2OCC)C1c1cccc([N+](=O)[O-])c1 | > 100 | > 100 | > 100 | > 100 | > 100 | > 100 | > 100 | > 100 | > 100 |  |  |  |  |  |  |  |  |  |  |
| CCOC(=O)C(=O)Nc1nc2ccc(C)cc2s1 | > 100 | > 100 |  | > 100 |  |  | > 100 | > 100 | > 100 | > 100 |  |  |  |  |  |  |  |  |  |
| Cc1nc(-n2nc(-c3ccccc3)cc2-c2ccccc2)sc1C(=O)CC(=O)C(=O)Nc1ccc(O)cc1 | > 100 | > 100 | > 100 | > 100 | > 100 | > 100 |  | > 100 | > 100 | > 100 |  |  |  |  |  |  |  |  |  |
| O=C(CCc1cc(-c2ccc(F)cc2)n[nH]1)N(Cc1ccccc1)Cc1ccccc1 | > 100 |  | > 100 | > 100 | > 100 | > 100 | > 100 | > 100 | > 100 | > 100 |  |  |  |  |  |  |  |  |  |
| CCCCOP1(=O)CC(C)=C(Cl)C(C)(OC)C1 (stereo not drawn) | > 100 | > 100 | > 100 | > 100 | > 100 | > 100 | > 100 | > 100 |  | > 100 |  |  |  |  |  |  |  |  |  |
| N#C/C(=C1\OC(N)=C(c2ccc(Cl)cc2)C1=O)c1ccc(Cl)cc1 | 33.1 | 32 | 31.4 | 25.9 | 25.4 | 41.4 |  | 50.9 | 50 |  |  |  |  |  |  |  |  |  |  |
| C[C@H]1CCC2C(OC(=O)[C@@H]2CN(C)C)[C@]2(C)C(=O)C=CC12O (stereo partly drawn) | 5.74 | 33.4 | 17.8 | 10.2 | 4.72 | 18.4 | 20.3 | 72.8 | 16.2 |  |  |  |  |  |  |  |  |  |  |
| O=C1CC2OCC=C3CN4CCC5(C(=O)O)C(N1)C2C3CC45 (stereo not drawn) | > 100 | > 100 | > 100 | > 100 | > 100 | > 100 | > 100 | > 100 |  | > 100 |  |  |  |  |  |  |  |  |  |
| COc1ccc(/C=C2/CSC/C(=C/c3ccc(OC)c(OC)c3)C2=O)cc1OC | 5.58 | 5.49 | 2.62 | 3.63 | 8.62 | 29.5 | 7.01 | 8.39 |  | 3.46 |  |  |  |  |  |  |  |  |  |
| Cc1nc(-n2nc(-c3ccccc3)cc2-c2ccccc2)sc1C(=O)/C=C/c1cccc([N+](=O)[O-])c1 | > 100 |  | 36.6 |  | 29.8 | 92.3 | 26.7 | 55.6 | 19.4 | > 100 |  |  |  |  |  |  |  |  |  |
| CCN1CCC(O)(/C=C/c2ccccc2)C(C(=O)/C=C/c2ccccc2)C1 (stereo not drawn) | 3.23 | 8.01 |  | 3.41 | 3.24 | 7.88 | 12.2 | 16.8 |  | 3.84 |  |  |  |  |  |  |  |  |  |
| C=Cc1cc(OC)c2c(c1)c(=O)oc1c2cc(OC)c2c(O)ccc(C3OC(C(C)O)C(O)C3O)c21 (stereo not drawn) |  | 0.703 |  | 0.084 | 0.00384 | 0.318 | 0.0555 | 0.414 |  |  | 0.053 | 0.0117 | 0.00181 | 0.0223 | 0.00775 | 0.0146 |  |  |  |
| CCSc1nc(N)c2cnn(CC)c2n1 |  | > 100 | 8 | 18.2 | 7.14 | 36.1 | 8.05 | 20.9 | 6.44 | 25.3 | 49 | 3.8 | 2.98 | 4.56 | 2.58 | 3.83 | 2.23 | 2.38 | 6.21 |
| C#C[C@@H](CCCC)OC(=O)N[C@H](C)c1ccccc1 | > 100 | > 100 | > 100 | > 100 |  | > 100 | 46.5 | > 100 | 87.6 |  |  |  |  |  |  |  |  |  |  |
| CC(=O)OC1=C(CC(C)(C)C)C(=O)c2ccccc2C1=O | > 100 | > 100 | > 100 | > 100 | 82.7 | > 100 | 51.3 |  | 39.1 | > 100 |  |  |  |  |  |  |  |  |  |
| Nc1ccn(C2CC3OCC3O2)c(=O)n1 (stereo not drawn) | > 100 | > 100 | > 100 | > 100 |  | > 100 | > 100 | > 100 | > 100 | > 100 |  |  |  |  |  |  |  |  |  |
| CC(CC(=O)Nc1ccc(NC(=O)CC(C)N=NC(N)=O)cc1)N=NC(N)=O (stereo not drawn) | > 100 | > 100 | 79.8 |  | > 100 | > 100 | > 100 | > 100 | > 100 | 33.6 |  |  |  |  |  |  |  |  |  |
| CCOC(=O)CC(C)C1(C=O)CCCCC1=O (stereo not drawn) | > 100 | > 100 | 34 |  | > 100 | > 100 | > 100 | > 100 | 53.2 | > 100 |  |  |  |  |  |  |  |  |  |
| C=CCCC(=O)CC(=O)OCc1ccccc1 | > 100 | > 100 | > 100 | > 100 |  | > 100 | > 100 | > 100 | > 100 | > 100 |  |  |  |  |  |  |  |  |  |
| COC(=O)C(/C(=N\O)C(=O)Nc1ccc(Br)cc1)c1nc2ccccc2[nH]c1=O (stereo not drawn) | > 100 | > 100 | 41.6 |  | 89.2 |  | 68.2 | > 100 | 61.6 | > 100 |  |  |  |  |  |  |  |  |  |
| CC1=CC(=O)N2C(OC[C@@H]2c2ccccc2)O1 (stereo partly drawn) | > 100 | > 100 |  | > 100 | > 100 | > 100 | > 100 | > 100 | > 100 | > 100 |  |  |  |  |  |  |  |  |  |
| O=[N+]([O-])c1ccc2nc(-c3ccc(Cl)cc3)[nH]c2c1 | 67.9 | > 100 | 35.3 | > 100 |  | 72.5 | 29.7 | 70.5 | 57.4 | 29.1 |  |  |  |  |  |  |  |  |  |
